# Reference: patent publication EP4711364A1, “FUSED PYRROLE RING OR FUSED PYRIDINE RING COMPOUND” (Pharmaengine, Inc., priority 2023, dated 2024)
# What was measured:
# [1] = target: T1, NanoLuc-PKMYT1 fusion construct (Homo sapiens, UniProt Q99640); assay: cell-based; type: binding; settings: HEK293 cell lines transiently expressing NanoLuc-PKMYT1; NanoBRET tracer; test compounds for 2 hours
# T1 construct: expressed in transfected cells; host or cells: HEK293 (transient expression)
# T1 sequence (Q99640 1-499): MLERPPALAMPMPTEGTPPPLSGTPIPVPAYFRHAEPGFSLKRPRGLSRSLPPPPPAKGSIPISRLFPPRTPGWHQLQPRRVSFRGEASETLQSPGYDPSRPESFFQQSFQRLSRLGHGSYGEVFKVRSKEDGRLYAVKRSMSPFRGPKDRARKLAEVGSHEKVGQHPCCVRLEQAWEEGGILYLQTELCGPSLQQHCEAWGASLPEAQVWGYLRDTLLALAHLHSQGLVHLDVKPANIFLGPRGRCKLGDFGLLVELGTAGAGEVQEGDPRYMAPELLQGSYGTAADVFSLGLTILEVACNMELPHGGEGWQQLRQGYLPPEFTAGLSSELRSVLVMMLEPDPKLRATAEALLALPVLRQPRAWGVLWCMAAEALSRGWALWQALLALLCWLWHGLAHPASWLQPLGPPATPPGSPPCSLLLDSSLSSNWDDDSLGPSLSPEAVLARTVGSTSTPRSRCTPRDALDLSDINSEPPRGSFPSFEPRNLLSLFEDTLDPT
# Procedure: HEK293 cell lines transiently expressing the NanoLuc-PKMYT1 fusion construct were seeded into wells of a 3 84-well plate. Cells were pretreated with NanoBRET tracer, then treated with test compounds for 2 hours. BRET signals were measured on an Envision multimode plate reader at 450 nm and 610 nm. IC50 values were calculated, and IC50 curves were plotted using GraphPad Prism with a four-parameter nonlinear regression model.
# HCC1569 = assay: Cell Proliferation Assay (CellTiter-Glo); type: cell-based; settings: Homo sapiens, 168 h, CCNE1-amplified breast cancer cell line HCC1569, incubated for 7 days
# Procedure: The sensitivity of cancer cell lines with normal or elevated CCNE1 levels to test compounds was evaluated in a cell proliferation assay. Cell lines were maintained in ATCC-recommended culture media supplemented with 10% FBS and 1% penicillin/streptomycin in a humidified 5% CO2 incubator. All test compounds were stored as 20 mM DMSO stock solutions.
# On Day 0, CCNE1-wild type (wt) and CCNE1-amplified (amp) cells were seeded into 384-well plates and incubated for 16 to 24 hours in a humidified 5% CO2 incubator. On Day 1, test compounds were dispensed into wells at specified concentrations (n=2), with DMSO volume normalized to the highest concentration. Plates with compound-treated cells were incubated for 7 days in a humidified 5% CO2 incubator.
# On Day 7, plates were removed from the incubator and equilibrated to room temperature. Relative inhibition was assessed by adding CellTiter-Glo reagent. Data were plotted as a percentage of the DMSO control for each compound in each cell line. IC50 values were calculated using a four-parameter nonlinear regression model (GraphPad Prism). Table 1: Cell viability data
smiles,measurement,setting,value
Cc1ccc2[nH]ncc2c1-n1c(N)c2c3c(c(C)c(C)nc31)C=CNC2=O [Compound 126],IC50,[1],5.5 nM
same,IC50,HCC1569,666 nM
Cc1nc2c3c(c1C)C=CNC(=O)c3c(N)n2-c1c(Cl)cc(F)c2[nH]ncc12 [Compound 136],IC50,[1],21.6 nM
same,IC50,HCC1569,> 1000 nM
Cc1nc2c3c(c1C)C=CNC(=O)c3c(N)n2-c1c(Cl)c(F)cc2[nH]ncc12 [Compound 137],IC50,[1],22.5 nM
same,IC50,HCC1569,566 nM
Cc1nc2c3c(c1C)C=CNC(=O)c3c(N)n2-c1c(C)c(F)cc2[nH]ncc12 [Compound 138],IC50,[1],19.8 nM
same,IC50,HCC1569,> 1000 nM
"Cc1cc2c(C(N)=O)c(N)n(-c3c(C)ccc(O)c3C)c2nc1C [Rp6306, reference compound]",IC50,HCC1569,18 nM
